Assay [1] addresses T1, CRBN (Homo sapiens, UniProt Q96SW2). The experiment in a line: CRBN displacement assay Format 1 (fluorescence polarization, BodipyFL-lenalidomide probe Compound HH). The class given is binding. How it is done: (§1) Compounds were tested in the following biochemical and cellular assays.
(§2) BodipyFL conjugated lenalidomide compound HH was used as a fluorescent probe. […] Protein and substrate were diluted in assay buffer.
All protein and probe containing solutions were handled in ‘Maxymum Recovery’ tubes (Axygen Scientific Inc., Union City, USA). […] For the plate measurements a PHERAstar reader (BMG Labtech, Offenburg, Germany) was used. The instrument was equipped with a specific optics module containing filters and dichoic mirrors for measuring the fluorescence polarization-type assay. With this module, the fluorescence of the Bodipy FL-based probe was excited at 485 nm and the emissions of the product were measured at 520 nm. The fluorescence in each well was excited by 10 flashes per measurement.
For the determination of AC50 values, the assays were performed at room temperature in 384-well plates with a total assay volume of 10.1 μL per well. The test compound was dissolved in 90% (v/v) DMSO/water. For the assays, 100 nL of the 90% (v/v) DMSO/water solution or compound solution were added per well, followed by the addition of 5 μL protein solution (protein in 1× assay buffer).
(§3) The final assay concentration of the protein was nominally 100 nM. After 45 minutes of pre-incubation at room temperature, the competition for binding was started by the addition of 5 μL probe solution (probe dissolved in assay buffer). The final concentration of the probes in the assays was 5 nM. After the addition of the probe solution, the final DMSO concentration in the assay was 0.9% (v/v). The effect of the probe on the pre-established compound-protein complex equilibrium was determined after 45 minutes (t=45 min). The AC50 value was calculated from the plot of percentage of protein saturation versus the test compound concentration by a logistics fit according to: y=A^2+(A^1−A^2)/(1+(x/AC50)^p), where y is the %-saturation value at the test compound concentration, x. A^1 is the lowest saturation value, i.e., 0%, and A^2 the maximum saturation value, i.e. 100%. The exponent, p, is the Hill coefficient.
In general terms: Fluorescence polarisation rises when a labelled molecule tumbles more slowly, as on binding a larger partner.

Assay [2] concerns the target T1, CRBN. The experiment in a line: CRBN displacement assay Format 2a (fluorescence polarization, 1536-well, Envision reader). In kind it is binding. On the procedure: as §1, §2
The fluorescence of the Bodipy FL-based probe was excited at 480 nm and the emissions of the product were measured at 535 nm. The fluorescence in each well was excited by 30 flashes per measurement.
For the determination of AC50 values, assays were performed at room temperature in 1536-well plates with a total assay volume of 6.03 μL per well. The test compounds were dissolved and diluted in 100% DMSO. For the assays, 30 nL of DMSO or compound solution were added per well, followed by the addition of 3 μL protein solution (80 nM protein in 1× assay buffer).
as §3, with “nominally 40” for “nominally 100”, “of 3” for “of 5”, “solution (10 nM probe” for “solution (probe”, “the probe” for “the probes”, “was 0.5%” for “was 0.9%”

Setting [3] is: concentration at which 50% of reference probe Compound HH is displaced, 100 nM protein, 5 nM probe, Table 4, read-out: CRBN AC50 [μM] Format 1.
Where [4] appears, read: concentration at which 50% of reference probe Compound HH is displaced, 40 nM protein, 5 nM probe, read-out: CRBN AC50 [μM] Format 2a.

The values below come from patent publication US20220387602A1, “BIFUNCTIONAL DEGRADERS AND THEIR METHODS OF USE” (NOVARTIS AG, priority 2019, published 2022).

Structures are written as SMILES.

T1 sequence (Q96SW2 whole entry): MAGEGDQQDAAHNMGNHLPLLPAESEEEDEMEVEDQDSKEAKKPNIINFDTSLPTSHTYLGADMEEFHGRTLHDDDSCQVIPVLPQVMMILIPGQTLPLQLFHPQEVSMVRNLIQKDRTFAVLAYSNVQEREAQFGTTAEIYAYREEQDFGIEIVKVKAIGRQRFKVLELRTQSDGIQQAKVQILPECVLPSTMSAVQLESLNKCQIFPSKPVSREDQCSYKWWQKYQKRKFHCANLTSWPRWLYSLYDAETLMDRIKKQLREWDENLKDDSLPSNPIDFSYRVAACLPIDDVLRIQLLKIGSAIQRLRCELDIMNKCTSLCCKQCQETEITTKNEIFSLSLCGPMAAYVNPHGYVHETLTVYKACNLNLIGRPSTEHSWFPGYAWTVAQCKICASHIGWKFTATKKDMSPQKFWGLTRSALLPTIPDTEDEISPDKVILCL

Regarding `Cc1ccc(OCC(=O)O)cc1N1CCC(=O)NC1=O` [ILB-20, 2-(3-(2,4-Dioxotetrahydropyrimidin-1(2H)-yl)-4-methylphenoxy)acetic acid], the AC50 (commonly the concentration at which the activity in the assay is half-maximal) was found to be 5.37 µM on CRBN [1] (setting [3]) and 2.01 µM at CRBN [2] (setting [4]).

On to `O=C1CCN(Cc2cccn(CCN3CCC(OC4CCNCC4)CC3)c2=O)C(=O)N1` [ILB-6, 1-((2-oxo-1-(2-(4-(piperidin-4-yloxy)piperidin-1-yl)ethyl)-1,2-dihydropyridin-3-yl)methyl)dihydropyrimidine-2,4(1H,3H)-dione], for which the AC50 turned out to be 19.8 µM at CRBN [1] and 8.36 µM on CRBN [2].

In the case of `C=CCn1cccc(CN2CCC(=O)NC2=O)c1=O` [ILB-1, 1-((1-allyl-2-oxo-1,2-dihydropyridin-3-yl)methyl)dihydropyrimidine-2,4(1H,3H)-dione], the AC50 on CRBN [1] amounted to 11 µM; on CRBN [2], 4.79 µM.

For the compound `Cc1ccc(C(=O)O)cc1N1CCC(=O)NC1=O` [ILB-24, 3-(2,4-dioxotetrahydropyrimidin-1(2H)-yl)-4-methylbenzoic acid], the AC50 at CRBN [1] (setting [3]) was 2.85 µM; on CRBN [2] (setting [4]) it was 0.68 µM.

For the compound `O=C1CCN(c2ccc(C#CCN3CCOC4(CCNCC4)C3)cc2)C(=O)N1` [ILB-40, 1-(4-(3-(1-oxa-4,9-diazaspiro[5.5]undecan-4-yl)prop-1-yn-1-yl)phenyl)dihydropyrimidine-2,4(1H,3H)-dione], the AC50 amounted to 12.3 µM on CRBN [1] (setting [3]) and 3.45 µM on CRBN [2] (setting [4]).

As to `COc1ccc(C(=O)O)cc1N1CCC(=O)NC1=O` [ILB-26, 3-(2,4-dioxotetrahydropyrimidin-1(2H)-yl)-4-methoxybenzoic acid], the AC50 was 2.92 µM at CRBN [1] (setting [3]) and 1.26 µM at CRBN [2] (setting [4]).

Turning to `O=C1CCN(c2cccc(C(=O)O)c2)C(=O)N1` [ILB-28, 3-(2,4-dioxotetrahydropyrimidin-1(2H)-yl)benzoic acid], the AC50 was 3.41 µM at CRBN [1] (setting [3]) and 1.3 µM at CRBN [2] (setting [4]).

Take `O=C(O)COc1ccc(N2CCC(=O)NC2=O)cc1` [ILB-14, 2-(4-(2,4-Dioxotetrahydropyrimidin-1(2H)-yl)phenoxy)acetic acid]: the AC50 amounted to 13 µM on CRBN [1] (setting [3]) and 5.79 µM at CRBN [2] (setting [4]).

In the case of `O=C1CCN(c2c(F)cc(C#CC3CCNCC3)cc2F)C(=O)N1` [ILB-38, 1-(2,6-difluoro-4-(piperidin-4-ylethynyl)phenyl)dihydropyrimidine-2,4(1H,3H)-dione], the AC50 on CRBN [1] (setting [3]) was 8.44 µM; on CRBN [2] (setting [4]), 6.02 µM.

As for `COc1ccc(C(=O)N2CCC3(CCNCC3)CC2)cc1N1CCC(=O)NC1=O` [ILB-56, 1-(2-methoxy-5-(3,9-diazaspiro[5.5]undecane-3-carbonyl)phenyl)dihydropyrimidine-2,4(1H,3H)-dione], the AC50 worked out at 1.26 µM on CRBN [1] and 0.23 µM at CRBN [2].

On to `O=C1CCN(c2ccc(OCC(=O)N3CCC(OC4CCNCC4)CC3)cc2)C(=O)N1` [ILB-55, 1-(4-(2-Oxo-2-(4-(piperidin-4-yloxy)piperidin-1-yl)ethoxy)phenyl)dihydropyrimidine-2,4(1H,3H)-dione], for which the values for the AC50 on CRBN [1] and on CRBN [2] were 14.4 µM and 4.04 µM, respectively.

As to `O=C1CCN(Cc2cccn(CCO)c2=O)C(=O)N1` [ILB-3, 1-((1-(2-Hydroxyethyl)-2-oxo-1,2-dihydropyridin-3-yl)methyl)dihydropyrimidine-2,4(1H,3H)-dione], the AC50 at CRBN [1] was 14.1 µM; at CRBN [2], 4.17 µM.

`O=CCOc1cccc(N2CCC(=O)NC2=O)c1` [ILB-18, 2-(3-(2,4-Dioxotetrahydropyrimidin-1(2H)-yl)phenoxy)acetaldehyde]: the AC50 at CRBN [1] (setting [3]) amounted to 11.2 µM; on CRBN [2] (setting [4]) it was 3.79 µM.

`C=CCOc1cccc(N2CCC(=O)NC2=O)c1` [ILB-34, 1-(3-(allyloxy)phenyl)dihydropyrimidine-2,4(1H,3H)-dione]: the figures for the AC50 at CRBN [1] (setting [3]) and at CRBN [2] (setting [4]) were 3.65 µM and 1.91 µM, respectively.

As to `O=C1CCN(c2cc(C(=O)O)ccc2F)C(=O)N1` [ILB-27, 3-(2,4-dioxotetrahydropyrimidin-1(2H)-yl)-4-fluorobenzoic acid], the AC50 is 3.03 µM at CRBN [1] (setting [3]) and 0.74 µM at CRBN [2] (setting [4]).

In the case of `CC(C)(C)OC(=O)NCC#Cc1cc(F)c(N2CCC(=O)NC2=O)c(F)c1` [ILB-43, tert-Butyl (3-(4-(2,4-dioxotetrahydropyrimidin-1(2H)-yl)-3,5-difluorophenyl)prop-2-yn-1-yl)carbamate], the AC50 on CRBN [1] was 2.99 µM; on CRBN [2], 2.93 µM.

On to `C#Cc1cccc(N2CCC(=O)NC2=O)c1` [ILB-33, 1-(3-ethynylphenyl)dihydropyrimidine-2,4(1H,3H)-dione], for which the AC50 worked out at 6.52 µM on CRBN [1] (setting [3]) and 2.68 µM on CRBN [2] (setting [4]).

For the compound `COc1ccc(C(=O)N2CCC(OC3CCNCC3)CC2)cc1N1CCC(=O)NC1=O` [ILB-59, 1-(2-methoxy-5-(4-(piperidin-4-yloxy)piperidine-1-carbonyl)phenyl)dihydropyrimidine-2,4(1H,3H)-dione], the AC50 amounted to 1.36 µM at CRBN [1] and 0.34 µM on CRBN [2].
